Laboratory results reported in patent US20260055079A1, “PHTHALAZINONE COMPOUNDS AS PARP7 INHIBITORS” (AZKARRA THERAPEUTICS, INC., priority 2022, published 2026).
Where two headings read alike, the source gives them in different places.

Columns and labels:
His-GST-PARP7 = His-GST-PARP7 (Homo sapiens (Human), UniProt Q7Z3E1); assay: PARP7 biochemical assay; details: read-out: PARP7 IC50
PARP2 = PARP2 (Homo sapiens (Human), UniProt Q9UGN5); assay: PARP2 biochemical assay
[1] = test system: HARA (human lung squamous cell carcinoma) cells; assay: Cell proliferation assay (CellTiter-Glo), HARA; assay type: cell-based; details: Homo sapiens, 144 h; 6 days, CellTiter-Glo; read-out: HARA GI50
[2] = test system: NCI-H1373 (human lung adenocarcinoma) cells; assay: Cell proliferation assay (CellTiter-Glo), NCI-H1373; assay type: cell-based; details: Homo sapiens, NCI-H1373, 144 h; 6 days, CellTiter-Glo; read-out: NCI-H1373 GI50

His-GST-PARP7, sequence (Q7Z3E1 whole entry): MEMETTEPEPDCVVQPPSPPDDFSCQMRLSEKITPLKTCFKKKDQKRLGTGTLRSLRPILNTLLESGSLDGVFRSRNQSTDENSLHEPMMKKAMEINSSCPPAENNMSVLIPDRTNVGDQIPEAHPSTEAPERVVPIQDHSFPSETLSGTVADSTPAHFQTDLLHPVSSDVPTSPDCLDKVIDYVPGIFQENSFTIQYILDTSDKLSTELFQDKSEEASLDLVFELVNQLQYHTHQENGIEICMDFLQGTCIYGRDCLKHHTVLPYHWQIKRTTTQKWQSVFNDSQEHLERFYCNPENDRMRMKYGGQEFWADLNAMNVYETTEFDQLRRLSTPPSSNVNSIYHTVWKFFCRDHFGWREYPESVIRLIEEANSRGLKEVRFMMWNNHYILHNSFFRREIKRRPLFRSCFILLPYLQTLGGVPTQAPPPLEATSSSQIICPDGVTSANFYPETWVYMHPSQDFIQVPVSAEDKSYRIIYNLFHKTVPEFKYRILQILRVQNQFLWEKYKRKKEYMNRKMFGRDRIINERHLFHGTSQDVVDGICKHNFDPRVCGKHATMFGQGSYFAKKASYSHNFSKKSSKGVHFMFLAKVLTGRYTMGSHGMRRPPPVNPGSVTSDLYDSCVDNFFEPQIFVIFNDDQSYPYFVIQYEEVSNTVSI
PARP2, sequence (Q9UGN5 whole entry): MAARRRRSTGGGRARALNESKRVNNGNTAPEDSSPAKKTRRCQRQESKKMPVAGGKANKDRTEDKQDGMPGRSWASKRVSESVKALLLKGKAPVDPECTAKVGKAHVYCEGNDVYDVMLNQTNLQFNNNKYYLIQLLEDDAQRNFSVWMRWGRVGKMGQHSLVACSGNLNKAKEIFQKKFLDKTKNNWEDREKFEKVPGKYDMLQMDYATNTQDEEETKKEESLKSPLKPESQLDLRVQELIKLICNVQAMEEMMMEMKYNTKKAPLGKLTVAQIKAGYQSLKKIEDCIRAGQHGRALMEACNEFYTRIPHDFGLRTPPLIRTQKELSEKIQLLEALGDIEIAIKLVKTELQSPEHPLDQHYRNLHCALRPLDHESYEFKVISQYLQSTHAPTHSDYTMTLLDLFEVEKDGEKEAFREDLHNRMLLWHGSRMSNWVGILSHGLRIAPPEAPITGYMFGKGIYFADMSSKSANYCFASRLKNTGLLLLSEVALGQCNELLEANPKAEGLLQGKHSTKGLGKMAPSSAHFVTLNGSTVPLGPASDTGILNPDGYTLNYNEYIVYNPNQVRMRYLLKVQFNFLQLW

| Compound | IC50 (His-GST-PARP7) | IC50 (PARP2; read-out: PARP2 IC50) | IC50 (PARP2) | GI50 [1] | GI50 [2] |
| --- | --- | --- | --- | --- | --- |
| 4-(4-Fluoro-3-(4-(5-(trifluoromethyl)pyrimidin-2-yl)piperazine-1-carbonyl)benzyl)-6-isobutylphthalazin-1(2H)-one [Example 44] | < 50 nM | 50 to 100 nM | – | – | – |
| 6-(4-(2-Fluoro-5-((4-oxo-7-(prop-2-yn-1-yloxy)-3,4-dihydrophthalazin-1-yl)methyl)benzoyl)piperazin-1-yl)nicotinonitrile [Example 26] | < 50 nM | 100 to 500 nM | – | – | – |
| N#Cc1ccc(N2CCN(C(=O)c3cc(Cc4n[nH]c(=O)c5ccc(N6CC(F)(F)C6)cc45)ccc3F)CC2)nc1 [Example 18, 6-(4-(5-((7-(3,3-Difluoroazetidin-1-yl)-4-oxo-3,4-dihydrophthalazin-1-yl)methyl)-2-fluorobenzoyl)piperazin-1-yl)nicotinonitrile] | < 50 nM | 100 to 500 nM | – | – | – |
| N#Cc1ccc(N2CCN(C(=O)c3cc(Cc4n[nH]c(=O)c5ccc(C#CC(F)(F)F)cc45)ccc3F)CC2)nc1 [Example 24, 6-(4-(2-Fluoro-5-((4-oxo-7-(3,3,3-trifluoroprop-1-ynyl)-3,4-dihydrophthalazin-1-yl)methyl)benzoyl)piperazin-1-yl)nicotinonitrile] | < 50 nM | 100 to 500 nM | – | – | – |
| N#Cc1ccc(N2CCN(C(=O)c3cc(Cc4n[nH]c(=O)c5ccc(CCC(F)(F)F)cc45)ccc3F)CC2)nc1 [Example 25, 6-(4-(2-Fluoro-5-((4-oxo-7-(3,3,3-trifluoropropyl)-3,4-dihydrophthalazin-1-yl)methyl)benzoyl)piperazin-1-yl)nicotinonitrile] | – | 100 to 500 nM | – | – | – |
| N#Cc1ccc(N2CCN(C(=O)c3cc(Cc4n[nH]c(=O)c5ccc(/C=C/C(F)(F)F)cc45)ccc3F)CC2)nc1 [Example 27, (E)-6-(4-(2-Fluoro-5-((4-oxo-7-(3,3,3-trifluoroprop-1-enyl)-3,4-dihydrophthalazin-1-yl)methyl)benzoyl)piperazin-1-yl)nicotinonitrile] | – | – | 50 to 100 nM | – | – |
| N#Cc1ccc(N2CCN(C(=O)c3cc(Cc4n[nH]c(=O)c5ccc(C#CC6CC6)cc45)ccc3F)CC2)nc1 [Example 37, 6-(4-(5-((7-(Cyclopropylethynyl)-4-oxo-3,4-dihydrophthalazin-1-yl)methyl)-2-fluorobenzoyl)piperazin-1-yl)nicotinonitrile] | 100 to 500 nM | 500 to 2000 nM | – | – | – |
| N#Cc1ccc(N2CCN(C(=O)c3cc(Cc4n[nH]c(=O)c5ccc(C6CC6)cc45)ccc3F)CC2)nc1 [Example 40, 6-(4-(5-((7-Cyclopropyl-4-oxo-3,4-dihydrophthalazin-1-yl)methyl)-2-fluorobenzoyl)piperazin-1-yl)nicotinonitrile] | < 50 nM | 100 to 500 nM | – | – | – |
| CC(C)(C)Cc1ccc2c(=O)[nH]nc(Cc3ccc(F)c(C(=O)N4CCN(c5ccc(C#N)cn5)CC4)c3)c2c1 [Example 41, 6-(4-(2-Fluoro-5-((7-neopentyl-4-oxo-3,4-dihydrophthalazin-1-yl)methyl)benzoyl)piperazin-1-yl)nicotinonitrile] | 100 to 500 nM | 100 to 500 nM | – | – | – |
| CCc1ccc2c(=O)[nH]nc(Cc3ccc(F)c(C(=O)N4CCN(c5ncc(C(F)(F)F)cn5)CC4)c3)c2c1 [Example 43, 6-Ethyl-4-(4-fluoro-3-(4-(5-(trifluoromethyl)pyrimidin-2-yl)piperazine-1-carbonyl)benzyl)phthalazin-1(2H)-one] | – | 100 to 500 nM | – | – | – |
| O=C(c1cc(Cc2n[nH]c(=O)c3ccc(C4CC4)cc23)ccc1F)N1CCN(c2ncc(C(F)(F)F)cn2)CC1 [Example 45, 6-Cyclopropyl-4-(4-fluoro-3-(4-(5-(trifluoromethyl)pyrimidin-2-yl)piperazine-1-carbonyl)benzyl)phthalazin-1(2H)-one] | < 50 nM | 100 to 500 nM | – | – | – |
| N#Cc1ccc(N2CCN(c3noc4ccc(Cc5n[nH]c(=O)c6ccc(OC7CCC7)cc56)cc34)CC2)nc1 [Example 211, 6-(4-(5-((7-cyclobutoxy-4-oxo-3,4-dihydrophthalazin-1-yl)methyl)benzo[d]isoxazol-3-yl)piperazin-1-yl)nicotinonitrile] | 100 to 500 nM | – | – | 1000 to 5000 nM | 1000 to 5000 nM |
